Reference: patent US6562828B1, “Amidine compounds” (Japan Tobacco Inc., priority 1998, dated 2003)
Counter-ions that a name gives are not always drawn.

Experiments:
Human FXa [1] = target: T1, Human FXa (Homo sapiens, UniProt P00742); assay: Determination of anti-factor Xa (FXa) activity, synthetic substrate S-2222; assay type: biochemical; details: S-2222, 37° C., pH 8.4, read-out: Experimental Example 1: anti-FXa activity, IC50
T1 construct: Human FXa [Enzyme research Laboratories (USA)] enzyme; purchased Enzyme Research Laboratories (USA)
Procedure: Determination of Anti-factor Xa (FXa) Activity
Human FXa [Enzyme research Laboratories (USA)] enzyme (40 μl, 0.16U/ml) and test compounds (40 l) adjusted to various concentrations were incubated in 0.1M Tris (Tris-hydroxymethyl-aminomethane) buffer (pH 8.4) containing 0.2M sodium chloride (herein to be referred to as 0.1 M tris-0.2M NaCl buffer) (40 μl) at 37° C. for 10 min. A synthetic substrate S-2222 (Daiichi Pure Chemical (Tokyo, Japan), 40 μl) adjusted to 0.8 mM was added and the mixture was incubated at 37° C. for 10 min. The reaction was stopped by addition of 60% acetic acid (40 μl) and absorbance at 405 nm was measured by Model 3550 (BIO-RAD). For the control, the solvent was used instead of the test compound.
Target sequence in this assay (P00742 235-488 limits assumed): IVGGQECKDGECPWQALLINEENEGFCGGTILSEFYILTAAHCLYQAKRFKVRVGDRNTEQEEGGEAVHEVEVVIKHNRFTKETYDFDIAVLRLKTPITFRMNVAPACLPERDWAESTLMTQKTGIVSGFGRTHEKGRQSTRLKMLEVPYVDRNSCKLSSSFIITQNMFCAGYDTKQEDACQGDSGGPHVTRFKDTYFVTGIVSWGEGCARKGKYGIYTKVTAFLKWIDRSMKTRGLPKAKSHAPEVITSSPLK
Target sequence in this assay (P00742 41-179 partner limits assumed): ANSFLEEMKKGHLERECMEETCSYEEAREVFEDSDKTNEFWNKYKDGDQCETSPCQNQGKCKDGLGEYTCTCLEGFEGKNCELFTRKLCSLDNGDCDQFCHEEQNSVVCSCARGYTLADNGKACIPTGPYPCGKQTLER

Human FIIa = target: T2, Human FIIa (Homo sapiens, UniProt P00734); assay: Determination of anti-factor IIa (FIIa) activity, synthetic substrate S-2238; assay type: biochemical; details: S-2238, 37° C., pH 8.4, read-out: Experimental Example 2: anti-FIIa activity, IC50
T2 construct: purchased Sigma

Human FXa [2] = target: T1, Human FXa; assay: Intravenous administration test in mouse, human FXa inhibitory activity in serum; assay type: in vivo; details: ICR mice, i.v., mean ± S.D., n = 3
Procedure: Intravenous Administration Tests in Mouse
A test compound dissolved in physiological saline was intravenously administered to ICR mice (body weight 20-30 g, 4-6 weeks old) and the activity of the test compound was evaluated based on the human FXa inhibitory activity in serum as an indicator.
At 10, 30, 60, 120 min from the intravenous administration, blood was taken from the eye ground using a hematocrit tube. The blood was centrifuged at 9000 G for 5 min and the obtained serum was used for the determination.
(§1) Human FXa inhibitory activity was measured as follows. Human FXa [Enzyme research Laboratories (USA)] enzyme (40 μl, 0.5 U/ml) and a 4-fold diluted plasma sample (40 μl) were incubated in 0.1M Tris-0.2M NaCl buffer (pH 8.4) (40 μl) at 37° C. for 10 min. A synthetic substrate S-2222 (Daiichi Pure Chemical (Tokyo, Japan), 40 μl) adjusted to 0.8 mM was added and the mixture was incubated at 37° C. for 5 min. The reaction was stopped by addition of 60% acetic acid (40 μl) and absorbance at 405 nm was measured by Model 3550 (BIO-RAD). For the control, serum or plasma obtained prior to blood sampling was used for measurement. Human FXa inhibitory activity was calculated as inhibition percentage (%) against control.
Target sequence in this assay (P00742 235-488 limits assumed): as the sequence (P00742 235-488 limits assumed) above
Target sequence in this assay (P00742 41-179 limits assumed): as the sequence (P00742 41-179 partner limits assumed) above

Human FXa [3] = target: T1, Human FXa; assay: Intravenous administration test in monkey, human FXa inhibitory activity in plasma; assay type: in vivo; details: crab-eating monkey, i.v., mean ± S.D., n = 3
Procedure: as §1
Target sequence in this assay (P00742 235-488 limits assumed): as the sequence (P00742 235-488 limits assumed) above
Target sequence in this assay (P00742 41-179 limits assumed): as the sequence (P00742 41-179 partner limits assumed) above
Intravenous Administration Tests in Monkey
A test compound dissolved in physiological saline was intravenously administered to monkey (crab-eating monkey, body weight 3.5-4.5 kg) and the activity of the test compound was evaluated based on the human FXa inhibitory activity in plasma as an indicator.
(§2) At 10, 30, 60, 120, 180 min from the intravenous administration, blood was taken from the saphenous vein with the passage of time and the blood was centrifuged at 2000 G for 10 min. The obtained citric acid plasma was used for the determination. Human FXa inhibitory activity was determined in the same manner as in the test using mouse.

Human FXa [4] = target: T1, Human FXa; assay: Oral administration test in monkey, human FXa inhibitory activity in plasma; assay type: in vivo; details: crab-eating monkey, mean ± S.D., n = 3
Procedure: as §1
Target sequence in this assay (P00742 235-488 limits assumed): as the sequence (P00742 235-488 limits assumed) above
Target sequence in this assay (P00742 41-179 limits assumed): as the sequence (P00742 41-179 partner limits assumed) above
Oral Administration Tests in Monkey
A test compound dissolved in distilled water was orally administered to monkey (carb-eating monkey, body weight 3.5-4.5 kg) and the activity of the test compound was evaluated based on the human FXa inhibitory activity in plasma as an indicator.
as §2, with “At” for “At 10,”, “240, 480” for “180”, “oral” for “intravenous”, “by intravenous administration.” for “using mouse.”

Human FXa [5] = target: T1, Human FXa; assay: Oral administration test in mouse, human FXa inhibitory activity in serum; assay type: in vivo; details: ICR mice, mean ± S.D., n = 3
Procedure: as §1
Target sequence in this assay (P00742 235-488 limits assumed): as the sequence (P00742 235-488 limits assumed) above
Target sequence in this assay (P00742 41-179 limits assumed): as the sequence (P00742 41-179 partner limits assumed) above
Oral Administration Tests in Mouse
A test compound dissolved in distilled water was orally administered to ICR mice (body weight 20-30 g, 4-6 weeks old) and the activity of the test compound was evaluated based on the human FXa inhibitory activity in serum as an indicator.
At 30, 60, 120, 180 min from the oral administration, blood was taken from the eye ground using a hematocrit tube. The blood was centrifuged at 9000 G for 5 min and the obtained serum was used for the determination. Human FXa inhibitory activity was determined in the same manner as in the test by intravenous administration.

Structure (SMILES)	IC50 (Human FXa [1])	IC50 (Human FIIa)	inhibition at 1 mg/kg (Human FXa [2]; 10 minutes)	inhibition at 1 mg/kg (Human FXa [2]; 30 minutes)	inhibition at 1 mg/kg (Human FXa [2]; 60 minutes)	also measured
N=C(N)N1CCc2ccc(OCC3(C(=O)O)CCN(c4ccncc4)CC3)cc2C1 [Example 9, 4-(2-Amidino-1,2,3,4-tetrahydroisoquinolin-7-yloxymethyl)-1-(pyridin-4-yl)piperidine-4-carboxylic Acid Hydrochloride]	–	–	–	–	–	inhibition at 1 mg/kg (Human FXa [3]; 10 minutes): 82 ± 1%; inhibition at 1 mg/kg (Human FXa [3]; 30 minutes): 72 ± 2%; inhibition at 1 mg/kg (Human FXa [3]; 60 minutes): 58 ± 4%; inhibition at 1 mg/kg (Human FXa [3]; 120 minutes): 41 ± 3%; inhibition at 1 mg/kg (Human FXa [3]; 180 minutes): 29 ± 2%; inhibition at 10 mg/kg (Human FXa [4]; 30 minutes): 28 ± 33%; inhibition at 10 mg/kg (Human FXa [4]; 60 minutes): 37 ± 27%; inhibition at 10 mg/kg (Human FXa [4]; 120 minutes): 46 ± 20%; inhibition at 10 mg/kg (Human FXa [4]; 240 minutes): 49 ± 9%; inhibition at 10 mg/kg (Human FXa [4]; 480 minutes): 23 ± 11%
CCOC(=O)C1(COc2ccc3c(c2)CN(C(=N)N)CC3)CCN(c2ccc(C(=N)N)cc2)CC1 [Example 98, 4-(2-Amidino-1,2,3,4-tetrahydroisoquinolin-7-yloxymethyl)-1-(4-amidinophenyl)-piperidine-4-carboxylic Acid Ethyl Ester Dihydrochloride]	400 nM	> 10000 nM	–	–	–	–
CC(=N)N1CCC(Oc2ccc(N(Cc3nc4cc(C(=N)N)ccc4n3C/C=C/c3ccccc3)C(=O)c3ccc(C(=O)O)cc3)cc2)CC1 [Example 109, N-[5-Amidino-1-(3-phenyl-2-propenyl)benzimidazol-2-ylmethyl]-N-[4-(1-acetimidoylpiperidin-4-yloxy)phenyl]carbamoylbenzoic Acid Dihydrochloride]	200 nM	> 10000 nM	–	–	–	–
COC(=O)c1cnccc1N1CCC(COc2ccc3c(c2)CN(C(=N)N)CC3)CC1 [Example 34, 4-[4-(2-Amidino-1,2,3,4-tetrahydroisoquinolin-7-yloxymethyl)-piperidin-1-yl]pyridine-3-carboxylic Acid Methyl Ester Dihydrochloride]	200 nM	> 10000 nM	–	–	–	–
N=C(N)N1CCc2ccc(OCC3CCN(S(=O)(=O)NCc4ccccc4)CC3)cc2C1 [Example 83, N-Benzyl-4-(2-amidino-1,2,3,4-tetrahydroisoquinolin-7-yloxymethyl)piperidine-1-sulfonamide hydrochloride]	700 nM	> 10000 nM	–	–	–	–
CCOC(=O)C(=O)N(Cc1nc2cc(C(=N)N)ccc2n1CC(=O)NC1CCCCC1)C1CCN(c2ccncc2)CC1 [Example 60, 1-(Cyclohexylcarbamoylmethyl)-2-[N-[1-(pyridin-4-yl)piperidin-4-yl]-N-ethoxalylaminomethyl]benzimidazole-5-carboxamidine Dihydrochloride]	900 nM	> 10000 nM	–	–	–	–
N=C(N)N1CCc2ccc(OCC3CCN(C(=N)Cc4ccccc4)CC3)cc2C1 [Example 30, 7-(1-Phenylacetimidoylpiperidin-4-ylmethoxy)-1,2,3,4-tetrahydroisoquinoline-2-carboxamidine Dihydrochloride]	400 nM	> 10000 nM	–	–	–	–

Further compounds by falling IC50 (Human FXa [1]), results first:

IC50 (Human FXa [1])	IC50 (Human FIIa)	inhibition at 1 mg/kg (Human FXa [2]; 10 minutes)	inhibition at 1 mg/kg (Human FXa [2]; 30 minutes)	inhibition at 1 mg/kg (Human FXa [2]; 60 minutes)	Structure (SMILES)	also measured
100 nM	> 10000 nM	55 ± 2%	43 ± 5%	28 ± 6%	COC(=O)c1ccc(C(=O)N(Cc2nc3cc(C(=N)N)ccc3n2CC(=O)NC2CCCCC2)c2ccc(OC3CCN(C(=N)N)CC3)cc2)cc1 [Example 64, 2-[N-[4-(1-Amidinopiperidin-4-yloxy)phenyl]-N-(4-methoxycarbonyl-benzoyl)aminomethyl]-1-(cyclohexylcarbamoylmethyl)benzimidazole-5-carboxamidine Dihydrochloride]	–
50 nM	> 10000 nM	–	–	–	CC(=N)N1CCC(Oc2ccc(OCc3nc4cc(C(=N)N)ccc4n3CC(=O)c3ccccc3)cc2)CC1 [Example 57, 2-[4-(1-Acetimidoylpiperidin-4-yloxy)phenoxymethyl]-1-phenacylbenzimidazole-5-carboxamidine Dihydrochloride]	–
20 nM	> 10000 nM	49 ± 1%	41 ± 8%	23 ± 11%	CCN=C(N)N1CCC(Oc2ccc(N(Cc3nc4cc(C(=N)N)ccc4n3CC(=O)NC3CCCCC3)C(=O)c3ccc(C(=O)O)cc3)cc2)CC1 [Example 112, N-[5-Amidino-1-(cyclohexylcarbamoylmethyl)benzimidazol-2-ylmethyl]-N-[4-[1-(N-ethylamidino)piperidin-4-yloxy]phenyl]carbamoylbenzoic Acid Dihydrochloride]	–
20 nM	> 10000 nM	55 ± 1%	34 ± 2%	17 ± 2%	N=C(N)c1ccc2c(c1)nc(CN(C(=O)c1ccc(C(=O)O)cc1)c1ccc(OC3CCN(C(=N)N)CC3)cc1)n2CC(=O)NC1CCCCC1 [Example 65, N-[5-Amidino-1-(cyclohexylcarbamoylmethyl)benzimidazol-2-ylmethyl]-N-[4-(1-amidinopiperidin-4-yloxy)phenyl]carbamoylbenzoic Acid Dihydrochloride]	–
10 nM	> 10000 nM	73 ± 1%	60 ± 4%	40 ± 3%	CC(=N)N1CCC(Oc2ccc(N(Cc3nc4cc(C(=N)N)ccc4n3CC(=O)Nc3ccc(OCc4ccccc4)cc3)C(=O)c3ccc(C(=O)O)cc3)cc2)CC1 [Example 18, 4-[N-[5-Amidino-1-(4-benzyloxyphenylcarbamoylmethyl)benzimidazol-2-ylmethyl]-N-[4-(1-acetimidoylpiperidin-4-yloxy)phenyl]carbamoyl]benzoic Acid Dihydrochloride]	inhibition at 1 mg/kg (Human FXa [2]; 120 minutes): 23 ± 5%
10 nM	> 10000 nM	55 ± 3%	46 ± 5%	16 ± 7%	CC(=N)N1CCC(Oc2ccc(N(Cc3nc4cc(C(=N)N)ccc4n3CC(=O)NC3CCCCC3)C(=O)c3ccc(C(=O)O)cc3)cc2)CC1 [Example 63, N-[5-Amidino-1-(cyclohexylcarbamoylmethyl)benzimidazol-2-ylmethyl]-N-[4-(1-acetimidoylpiperidin-4-yloxy)phenyl]carbamoylbenzoic Acid]	inhibition at 0.3 mg/kg (Human FXa [2]; 10 minutes): 32 ± 2%; inhibition at 0.3 mg/kg (Human FXa [2]; 30 minutes): 16 ± 3%; inhibition at 0.3 mg/kg (Human FXa [2]; 60 minutes): 4 ± 3%; inhibition at 0.3 mg/kg (Human FXa [2]; 120 minutes): 1 ± 3%; inhibition at 1 mg/kg (Human FXa [2]; 120 minutes): 3 ± 6%; inhibition at 10 mg/kg (Human FXa [5]; 30 minutes): 22 ± 6%; inhibition at 10 mg/kg (Human FXa [5]; 60 minutes): 14 ± 9%; inhibition at 10 mg/kg (Human FXa [5]; 120 minutes): 12 ± 10%; inhibition at 10 mg/kg (Human FXa [5]; 180 minutes): 12 ± 4%
